Measured values reported in ChEMBL document CHEMBL5729675, “Sulfonamide compound or salt thereof” (2023).

target: Ribonucleotide reductase (Homo sapiens, UniProt P23921+Q7LG56); test: Human RNR Inhibition Effect: The inhibitory activity against the ribonucleotide reduction reaction (hereinafter referred to as RNR reaction) of the test compound was determined by measuring the formation of deoxycytidine diphosphate (hereinafter referred to as dCDP) from cytidine diphosphate (hereinafter referred to as CDP) by the following method.Human M1 subunit and human M2 subunit (mutant …
Sequence (P23921 whole entry, looked up): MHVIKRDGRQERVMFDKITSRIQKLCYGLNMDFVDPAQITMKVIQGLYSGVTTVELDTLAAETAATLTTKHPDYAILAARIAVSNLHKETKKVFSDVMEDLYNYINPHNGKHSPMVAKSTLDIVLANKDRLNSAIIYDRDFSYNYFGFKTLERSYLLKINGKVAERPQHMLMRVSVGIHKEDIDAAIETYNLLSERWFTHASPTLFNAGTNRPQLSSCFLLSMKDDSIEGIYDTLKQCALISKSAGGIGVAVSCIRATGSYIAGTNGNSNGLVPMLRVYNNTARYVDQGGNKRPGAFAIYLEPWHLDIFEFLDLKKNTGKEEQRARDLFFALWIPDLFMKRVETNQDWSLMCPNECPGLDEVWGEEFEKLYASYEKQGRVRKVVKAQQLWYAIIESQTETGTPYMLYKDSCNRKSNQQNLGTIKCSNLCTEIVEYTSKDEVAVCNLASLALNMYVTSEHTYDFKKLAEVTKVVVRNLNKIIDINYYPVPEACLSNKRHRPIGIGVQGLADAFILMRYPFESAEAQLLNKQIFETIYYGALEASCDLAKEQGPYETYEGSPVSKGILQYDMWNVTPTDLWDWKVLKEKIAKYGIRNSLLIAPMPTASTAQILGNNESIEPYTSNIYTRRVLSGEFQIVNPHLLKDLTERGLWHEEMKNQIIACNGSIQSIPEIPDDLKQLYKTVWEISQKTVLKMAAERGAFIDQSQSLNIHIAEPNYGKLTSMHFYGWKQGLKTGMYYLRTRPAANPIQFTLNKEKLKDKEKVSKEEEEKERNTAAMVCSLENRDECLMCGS
Sequence (Q7LG56 whole entry, looked up): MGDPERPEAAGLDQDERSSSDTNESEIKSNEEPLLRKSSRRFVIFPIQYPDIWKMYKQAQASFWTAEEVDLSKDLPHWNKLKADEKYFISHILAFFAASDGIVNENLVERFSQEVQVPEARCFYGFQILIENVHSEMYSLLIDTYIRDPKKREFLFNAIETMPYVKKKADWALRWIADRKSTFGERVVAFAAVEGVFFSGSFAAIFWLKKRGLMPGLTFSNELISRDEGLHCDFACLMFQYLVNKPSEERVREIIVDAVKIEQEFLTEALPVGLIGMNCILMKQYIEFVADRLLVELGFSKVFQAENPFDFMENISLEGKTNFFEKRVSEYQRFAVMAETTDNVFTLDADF

SMILES | IC50
Cc1ccc(F)c([C@@H](C)[C@H](NS(=O)(=O)c2ccc([N+](=O)[O-])cc2)c2n[nH]c(=O)o2)c1C | 270 nM
COC(=O)c1cc(S(=O)(=O)N[C@H](c2n[nH]c(=S)o2)[C@H](C)c2cccc3c2CCC3)ccc1Cl | 830 nM
COc1cc(Cl)ccc1S(=O)(=O)N[C@H](c1n[nH]c(=O)o1)[C@H](C)c1c(F)ccc(-c2cncc(C(=O)N3CCOCC3)c2)c1C | 420 nM
COc1ccc(-c2cc(S(=O)(=O)N[C@H](c3n[nH]c(=O)o3)[C@H](C)c3c(F)ccc(C)c3C)ccc2Cl)cc1 | 720 nM
Cc1ccc(F)c([C@@H](C)[C@H](NS(=O)(=O)c2ccc(C#N)cc2)c2n[nH]c(=O)o2)c1C | 410 nM
COc1cc(Cl)ccc1S(=O)(=O)N[C@H](c1n[nH]c(=O)o1)[C@H](C)c1c(F)ccc(-c2ccc(N3CCCCC3)nc2)c1C | 600 nM
Cc1ccc(F)c([C@@H](C)[C@H](NS(=O)(=O)c2ccc(Br)c(C#N)c2)c2n[nH]c(=O)o2)c1C | 640 nM
COc1cc(Cl)ccc1S(=O)(=O)N[C@H](c1n[nH]c(=S)[nH]1)[C@H](C)c1c(F)ccc(C)c1C | 460 nM
COC(=O)c1c(Cl)ccc(S(=O)(=O)N[C@H](c2n[nH]c(=S)o2)[C@H](C)c2cccc3c2CCC3)c1Cl | 310 nM
COc1cc(C(N)=O)ccc1S(=O)(=O)N[C@H](c1n[nH]c(=O)o1)[C@H](C)c1c(F)ccc(C)c1C | 420 nM

Compounds with a lower IC50, results first:

IC50 | SMILES
220 nM | Cc1ccc(F)c([C@@H](C)[C@H](NS(=O)(=O)c2ccc(Cl)c(-c3cnn(C)c3)c2)c2n[nH]c(=O)o2)c1C
60 nM | Cc1c(Br)ccc(F)c1[C@@H](C)[C@H](NS(=O)(=O)c1ccc(Cl)c2c1OCCC2(C)N)c1n[nH]c(=O)o1 (stereo partly specified)
220 nM | COc1cc(Cl)ccc1S(=O)(=O)N[C@H](c1n[nH]c(=O)o1)[C@H](C)c1c(F)ccc(-c2cnc3c(c2)OCCN3C)c1C
170 nM | Cc1c(-c2cnn(C)c2)ccc(F)c1[C@@H](C)[C@H](NS(=O)(=O)c1ccc(Cl)cc1C(N)=O)c1n[nH]c(=O)o1
90 nM | COc1cc(C#N)ccc1S(=O)(=O)N[C@H](c1n[nH]c(=O)o1)[C@H](C)c1c(F)ccc(C)c1C
130 nM | Cc1ccc(F)c([C@@H](C)[C@H](NS(=O)(=O)c2ccc(Br)cc2C(N)=O)c2n[nH]c(=S)o2)c1C
250 nM | COc1cc(Cl)ccc1S(=O)(=O)N[C@H](c1noc(=O)[nH]1)[C@H](C)c1c(F)ccc(C)c1C
80 nM | Cc1ccc(F)c([C@@H](C)[C@@H](c2n[nH]c(=O)o2)N(C)S(=O)(=O)c2ccc(Cl)cc2C(N)=O)c1C
100 nM | Cc1ccc(F)c([C@@H](C)[C@H](NS(=O)(=O)c2ccc(Br)cc2OC(F)(F)F)c2n[nH]c(=O)o2)c1C
250 nM | COc1ccccc1-c1ccc(C(N)=O)c(S(=O)(=O)N[C@H](c2n[nH]c(=O)o2)[C@H](C)c2c(F)ccc(C)c2C)c1
90 nM | Cc1ccc(F)c([C@@H](C)[C@H](NS(=O)(=O)c2cc(-c3nnco3)ccc2C(N)=O)c2n[nH]c(=O)o2)c1C
